From article PMC4157579, “Lysine Acetylation Controls Local Protein Conformation by Influencing Proline Isomerization” (Molecular Cell, 2014)
Ends that are not written are not given here. * marks the point of attachment. pNA = O=[N+]([O-])c1ccc(N*)cc1

How the values were obtained:
chymotrypsin = test: Chymotrypsin-coupled proline isomerization assay (pNA release); type: biochemical; conditions: 10 μl of 7.8 mM pNA peptide per 1 ml, 395 nm, every 0.6 s for 20 s, first 0.6–10.2 s, mean initial rate, n = 4–5
Excerpt: Figure 6 K14ac Promotes P16trans (A) Relative binding ± SEM (n = 2–11) assessed by surface plasmon resonance of purified recombinant Spt7 bromodomain (residues 363–619) to the indicated H3 peptides (11–26). (B) Coomassie-stained gel showing a pull-down experiment, quantified relative to the K18ac peptide, with the indicated H3 peptides and the purified recombinant Spt7 bromodomain (n = 3). (C) A chymotrypsin-coupled assay for proline isomers using synthetic hexamers based on GGKAPF-pNA (unmodified). pNA is released by chymotrypsin cleavage only from the trans-proline-containing peptide. (D) K14ac and substitutions at K14 influence isomerization at A15-P16 and pNA release, expressed as mean initial rate ± SEM (n = 4–5) over the first 0.6–10.2 s of the reaction. (E) Schematic showing how K14ac or the K14R substitution influence A15-P16 conformation. […]
Saccharomyces cerevisiae strains used in this study are shown in Supplemental Experimental Procedures. […] Quantitation was performed using ImageJ software. […] The P16 proline isomerase assay was performed as described ([Shan et al., 1994]) using 10 μl of 7.8 mM pNA peptide (Proteogenix) solution per 1 ml assay reaction and pNA release monitored at 395 nm. […] Sensorgrams, binding curves, and Kd values were analyzed with BIA T100 and T200 evaluation software (GE Healthcare) using a 1:1 binding model. […]

[1] = system: bromodomain carrying alanine substitutions (Y500A/Y520A/N521A); test: Peptide pull-down with substituted Spt7 bromodomain; type: binding, yeast; conditions: bromodomain with alanine at Y500, Y520 and N521, Figure S4C
Excerpt: We developed a second assay that involves monitoring the effect of the P16V substitution on the binding of the Spt7 bromodomain to an H3 peptide modified by acetylation at K14 and/or K18 using surface plasmon resonance (SPR) (Figures 6A, S4A, and S4B) or by pull downs (Figures 6B and S4C). Bromodomains are acetyl-lysine binding domains, found in a number of chromatin-associated proteins ([Taverna et al., 2007]) including Spt7. The function and binding specificity of the Spt7 bromodomain are currently unknown, but it preferentially interacts with hyperacetylated histones in vitro ([Hassan et al., 2007]). […] The binding of the Spt7 bromodomain to the P16V-substituted K18ac peptide improved binding by ∼2-fold. […] We reasoned that this could reflect an effect of the side chain on binding or an influence on the conformation of the A15-P16 bond. […] The corollary of this is that acetylation of K14 would correlate with the A15-P16 bond in the trans configuration, supporting ideas that the peptidyl-prolyl bond conformation is mainly determined by local effects in proteins ([Reimer et al., 1998]). […]
bin expressed as a proportion of the total K4me3 across the gene. […] P values were calculated from a simulated probability distribution curve. […]
(§1) Purity was determined with MALDI-TOF mass spectrometry and HPLC and the peptides used […]

[2] = system: Spt7 bromodomain (residues 363–619); test: Peptide pull-down with Spt7 bromodomain; type: binding, yeast
Excerpt: (§2) We developed a second assay that involves monitoring the effect of the P16V substitution on the binding of the Spt7 bromodomain to an H3 peptide modified by acetylation at K14 and/or K18 using surface plasmon resonance (SPR) (Figures 6A, S4A, and S4B) or by pull downs (Figures 6B and S4C). Bromodomains are acetyl-lysine binding domains, found in a number of chromatin-associated proteins ([Taverna et al., 2007]) including Spt7. The function and binding specificity of the Spt7 bromodomain are currently unknown, but it preferentially interacts with hyperacetylated histones in vitro ([Hassan et al., 2007]). […] The binding of the Spt7 bromodomain to the P16V-substituted K18ac peptide improved binding by ∼2-fold. […] We reasoned that this could reflect an effect of the side chain on binding or an influence on the conformation of the A15-P16 bond. […] The corollary of this is that acetylation of K14 would correlate with the A15-P16 bond in the trans configuration, supporting ideas that the peptidyl-prolyl bond conformation is mainly determined by local effects in proteins ([Reimer et al., 1998]).
(§3) Figure 6 K14ac Promotes P16trans (A) Relative binding ± SEM (n = 2–11) assessed by surface plasmon resonance of purified recombinant Spt7 bromodomain (residues 363–619) to the indicated H3 peptides (11–26). (B) Coomassie-stained gel showing a pull-down experiment, quantified relative to the K18ac peptide, with the indicated H3 peptides and the purified recombinant Spt7 bromodomain (n = 3). (C) A chymotrypsin-coupled assay for proline isomers using synthetic hexamers based on GGKAPF-pNA (unmodified). pNA is released by chymotrypsin cleavage only from the trans-proline-containing peptide. (D) K14ac and substitutions at K14 influence isomerization at A15-P16 and pNA release, expressed as mean initial rate ± SEM (n = 4–5) over the first 0.6–10.2 s of the reaction. (E) Schematic showing how K14ac or the K14R substitution influence A15-P16 conformation. (F) Schematic showing how dynamic K14ac influences A15-P16 conformation and K4me3 (K4 and K14 denote that these residues are not trimethylated or acetylated respectively). (G) The balance of positive-acting factors (right panel) and negative-acting factors (left panel) controls levels of K4me3 at individual genes. […] See also Figure S4. […]
(n=5771) with the ratios of H3-normalised K4me3 in the K14A and P16V strains relative to the WT strain. Genes with ratios > 2 (n = 7 and 4 for K14A/WT and P16V/WT respectively) have been removed for clarity. Highlighted are the genes with the 200 highest and lowest ratios selected for further analysis (K14/P16-independent and K14/P16-dependent gene classes respectively). […]
as §1

[3] = system: Spt7 bromodomain (residues 363–619); test: SPR binding of H3 peptides to immobilized Spt7 bromodomain; set-up: species or system yeast; conditions: SPR, Biacore T100/T200, 25°C, peptides 1-200 µM in HBS-P+, NTA chip-captured His-tagged bromodomain, 1:1 model; Figure 6A, n = 2–11
Excerpt: as §2, §3
(n=5771) with the ratios of H3-normalised K4me3 in the K14A and P16V strains relative to the WT strain. Genes with ratios > 2 (n = 7 and 4 for K14A/WT and P16V/WT respectively) have been removed for clarity. Highlighted are the genes with the 200 highest and lowest ratios selected for further analysis (K14/P16-independent and K14/P16-dependent gene classes respectively). (C) Overlap (%) between the four selected gene classes from Figure S3B and the genes temporally expressed during the yeast metabolic cycle (YMC: OX, oxidative; R/B, reductive building; R/C, reductive charging phase), induced/repressed by the environmental stress response (ESR), classed as ribosomal protein genes (RPGs) or ribosome biogenesis genes (Ribis), or regulated predominantly by SAGA or TFIID. […]
YMC and ESR expression data were taken from (Tu et al., 2005) and (Gasch et al., 2000) respectively. SAGA/TFIID-regulated genes were obtained from (Huisinga and Pugh, […]
Figure S4. (Related to Figure 6)
(A) Surface plasmon resonance (SPR) affinity fits for the indicated H3 peptides encompassing residues 11-26 binding to the Spt7 bromodomain (residues 363-619). Also shown is a typical sensorgram of H3 peptide binding to the Spt7 bromodomain […]
values ± SEM for Spt7 binding to variously-modified H3 peptides. (C) A peptide pull-down experiment with a range of H3 peptides and the WT or substituted Spt7 bromodomain […]
Peptides for bromodomain interaction studies
Peptides were synthesized at GL Biochem (Shanghai) LTD, China and Proteogenix, France.
as §1
The peptide sequences are listed in the […]

Row | Substance | Initial rate of cleavage (pNA release) (chymotrypsin) | Binding to substituted Spt7 bromodomain [1] | Binding to Spt7 bromodomain ([2]; SulfoLink resin, bromodomain 30 µg/ml, 2 h at 4°C, Coomassie gel, relative to K18ac peptide, Figure 6B, n = 3) | Enrichment of binding over the unmodified peptide ([2]; WT versus Y500A/Y520A/N521A bromodomain, Figure S4C) | Binding to Spt7 bromodomain [3]
1 | GGKAPF-pNA [unmodified peptide] | comparable to that reported previously in a similar assay |  |  |  | 
2 | TGGKAPR(Kac)QLASKAARC [K18ac, H3 peptide (11–26) acetylated at K18] |  | lack of binding | specifically recognized acetylated K18 | enriched | specifically recognized acetylated K18
